The record followed here is patent US20250137054A1, “COMPOSITION AND METHOD FOR EVALUATING RESPONSIVENESS OF EDARAVONE” (MITSUBISHI TANABE PHARMA CORPORATION, priority 2022, published 2025).

The subject of experiment [1] is disease model cells (neurons derived from the 1464R cell line forcibly expressing wild-type and mutant TDP-43). Put plainly: Evaluation of cell protection by microscopic observation. The settings on record: Eda 200 μmol/L 24 h, then EA 20 μmol/L 24 h; fluorescence microscope (FIG. 2). In kind it is cell-based, rat.
Protocol: As a target, a 1464R adult rat neural stem cell line (hereinafter also referred to as the “1464R cell line” or “undifferentiated cell line”) was used.
Using both vectors (a) and (b), the differentiated cell line in the infection medium was infected with adenovirus at a multiplicity of infection of 50, and cultured for 24 hours.
Using a 96-well plate treated with poly-L-lysine, cells were seeded at a concentration of 8×10^4 cells/well, cultured and differentiated under the conditions of (1) in Example 1.
Then, cell morphology in each group was observed using a fluorescence microscope.
Cell nuclei were fluorescently stained using Hoechst 33342 using a conventional method.
The test system of experiment [2] is differentiated 1464R cell line (no forced TDP-43 expression). Put plainly: RNA-seq gene expression analysis in differentiated cell line without TDP-43. In kind it is cell-based, rat. To be noted: Group 2 (Eda 50 μmol/L 48 h) vs Group 1 (control). The method, then:
Next, using a differentiation medium shown below, the 1464R cell line was cultured in an adherent state on a poly-L-lysine treated dish. Culture conditions for cell differentiation were 37° C., 5% CO2, and 4 days. Through this process, the 1464R cell line was differentiated into neuronal cells (neurons). Further, the 1464R cell line partly differentiated into glial cells. In the following description, the differentiated 1464R cell line is also collectively referred to as the “differentiated cell line.” […]
Next, using the NovaSeq6000 system (NovaSeq6000 S4 reagent kit, NovaSeq Xp4 lane kit, and NovaSeq control software (version 1.6.0); all manufactured by Illumina), sequences of the cDNA library were determined according to a product protocol. […]
An RNA expression level (TPM) of a transcription product i measured from the cDNA library of the experimental groups was calculated based on alignment to the rat genome and transcription product annotation from the Ensembl database, according to the following equation (A).
Differential expression analysis was performed using DESeq2 (a package for two-group comparison) in the statistical analysis software R (version 3.6.0) to calculate a log 2 ratio of RNA expression levels and a significance test. The log 2 ratio is a value expressed as “log 2 ([expression level of a first measurement target]/[expression level of a second measurement target]).” […]

For experiment [3], the system named is TDP-43 in ALS patient-derived neurons. Put plainly: TDP-43 localization evaluation, ALS patient-derived neurons. In kind it is cell-based, human. The settings on record: edaravone treatment, after 24 hours, DMSO group = 100 (FIG. 15). The source says:
Human induced pluripotent stem (iPS) cells were induced from cells derived from an ALS patient and cells derived from a healthy individual using a conventional method. The cells derived from the ALS patient were used that are known to have an ALS risk mutation as a heterozygous mutation in the TARDBP gene. Each iPS cell was differentiated into a motor neuron (hereinafter, also simply referred to as a “neuron”) using a conventional method. […]
Intracellular localization of TDP-43 polypeptides was evaluated by immunofluorescence staining of neurons. […] After further nuclear staining, washing with PBS, and imaging under a fluorescence microscope were performed. The captured images were analyzed using Matlab (Mathworks), and fluorescence intensities of TDP-43 in a nuclear region and in a cytoplasmic region were respectively calculated. […]
Regarding the intracellular localization of TDP-43 polypeptides, the nuclear and cytoplasmic TDP-43 fluorescence intensities and the cytoplasmic/nuclear TDP-43 intensity ratios in ALS cells and healthy cells are shown in FIG. 15. […]

Turning to `CC1=NN(c2ccccc2)C(=O)C1` [edaravone, 5-methyl-2-phenyl-2,4-dihydro-3H-pyrazol-3-one], in experiment [1], the “neuron-specific protrusion shape observed by the localization of tubulin βIII” value is “sufficiently maintained”. For the same compound, in experiment [2], the “number of downregulated genes (DEGs)” value was 0/0 and the “number of upregulated genes (DEGs)” value is given as 0/0. In experiment [3], the “cytoplasmic TDP-43 intensity” value is “significantly decreased” and the “cytoplasmic/nuclear TDP-43 intensity ratio” value is recorded as “significantly decreased”.
